Measured values from PubChem BioAssay AID2401 (Southern Research Specialized Biocontainment Screening …, 2010).
pIC50: −log10 of the molar value.

Test system: S. Typhimurium GFP reporter counter-screen, fluorescence, 4 h
Assay: S. Typhimurium nonspecific reporter signal inhibition – Salmonella Typhimurium, GFP fluorescence, counter-screen for PhoP regulon inhibitor project, dose response (AID 2401);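 also: S. typhimurium with Mg-insensitive nmpC-GFP reporter grown at 10 µM Mg2+; drop in reporter fluorescence reflects general culture growth inhibition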

Structure (SMILES) | pIC50
CN1/C(=C\C=C\C2=[N+](C)c3ccc4ccccc4c3C2(C)C)C(C)(C)c2ccccc21 | 5.03
Nc1cc2nsnc2cc1Br | 4.11
CC(C)COc1ccc(Cc2cnc(N)nc2N)cc1 | 4.21
Nc1nc(N2CCN(C/C=C/c3ccccc3)CC2)nc2ccccc12 | 3.97
O=C(C[n+]1cc(-c2ccc(Cl)cc2)n2c1CCC2)Nc1nc(-c2ccc(F)cc2)cs1 | 4.42
COc1cc([N+](=O)[O-])cc(/C=N\NC(=O)C2COc3ccccc3O2)c1O (configuration not stated) | 4.07
CS(=O)(=O)c1ccc([C@@H](O)[C@@H](CF)NC(=O)C(Cl)Cl)cc1 | 4.78
Cc1ccc(/C=C/C(=O)c2ccccc(=O)c2O)cc1C | 4.60
CN(C)c1ccc(O)c2c1CC1CC3C(N(C)C)C(=O)C(C(N)=O)=C(O)[C@@]3(O)C(=O)C1=C2O (some centres not stated) | 5.40
O=C(N/N=C/c1ccc([N+](=O)[O-])s1)C(O)c1ccccc1 (configuration not stated) | 4.31
COc1cnc(-c2ccccn2)[nH]c1=O | 4.45
CCCNC(=O)c1cn(CC)c2cc(N3CCN(C)CC3)c(F)cc2c1=O | 4.32
CS(=O)(=O)c1ccc([C@@H](O)[C@@H](CO)NC(=O)C(Cl)Cl)cc1 | 4.06
CCn1cc(C(=O)O)c(=O)c2cnc(N3CCNCC3)nc21 | 4.16
NC1=NC[C@H](Cc2ccc(O)cc2)N1CCC12CC3CC(CC(C3)C1)C2 | 4.15
Oc1c(Br)cc(Br)cc1C=NCc1ccccc1 | 4.00
CCn1cc(C(=O)O)c(=O)c2cc(F)c(N3CCN(C)CC3)cc21 | 5.67
CC1CCc2c(N3CCC(O)CC3)c(F)cc3c(=O)c(C(=O)O)cn1c23 (configuration not stated) | 4.82
CC1CCC(C(C)C)C(OC(=O)Cn2c(COc3ccccc3)[n+](C)c3ccccc32)C1 (configuration not stated) | 4.39
CC(C)CCNCC(O)CON=C1c2ccccc2-c2ccccc21 (configuration not stated) | 3.90
CN(Cc1ccccc1)CC(O)COc1ccc(CNCc2ccc(Cl)s2)cc1 (configuration not stated) | 4.04
O=C(O)CSc1cc(NS(=O)(=O)c2cccc([N+](=O)[O-])c2)c2ccccc2c1O | 4.08

Structure (SMILES) | pIC50
O=C(N/N=C/c1coc2ccc(Cl)cc2c1=O)c1cc(O)cc(O)c1 | 4.06
COc1c(N2CCN(C(=S)NC3CC4CCC3C4)C(C)C2)c(F)cc2c(=O)c(C(=O)O)cn(C3CC3)c12 (configuration not stated) | 4.14
Nc1nc(F)nc2c1ncn2[C@@H]1O[C@H](CO)[C@@H](O)[C@H]1O | 4.48
O=C1C=C(N2CCOCC2)c2ccccc2C1=O | 4.26
CCn1cc(C(=O)O)c(=O)c2cc(F)c(N3CCN(C(=S)NC(=O)c4ccc(F)cc4)CC3)cc21 | 3.98
CCOC(=O)N1CCN(C(c2cccnc2)c2ccc3cccnc3c2O)CC1 (configuration not stated) | 4.38
Clc1ccc(CN2CCC(c3nc4ccc(Cl)cc4[nH]3)CC2)cc1 | 4.65
O=[N+]([O-])c1cc(CN2CCOCC2)c2cccnc2c1O | 4.57
CC1CCC(C(C)C)C(OC(=O)Cn2c(-c3ccc(Cl)cc3)[n+](C)c3ccccc32)C1 (configuration not stated) | 4.08
O=[N+]([O-])c1ccc(-c2ccn[nH]2)o1 | 4.40
CCc1ccc(NC(=O)C[n+]2cc(-c3ccc(C)cc3)n3c2CCC3)cc1 | 4.07
C=CS(=O)(=O)c1ccc(Oc2ccc(S(=O)(=O)C=C)cc2)cc1 | 3.96
O=C(Oc1c(CN2CCOCC2)cc(Cl)c2cccnc12)c1ccc(F)cc1 | 3.87
Cc1onc(-c2ccccc2)c1C(=O)NC(=S)NNC(=O)c1ccc(O)cc1O | 3.92
C/C(=C\C(=O)OCCCCCCCCC(=O)O)C[C@@H]1OC[C@H](C[C@@H]2O[C@H]2[C@@H](C)[C@H](C)O)[C@@H](O)[C@H]1O | 5.01
CCCCCCCCCCCCCCCC[N+](C)(C)CCN(Cc1ccc(OC)cc1)c1ncccn1 | 4.69
Oc1ccc(/C=N/Nc2nccnc2Cl)c(O)c1 | 4.46
Cc1ccc(Cn2c(=N)n(CC(=O)c3ccc([N+](=O)[O-])cc3)c3ccccc32)cc1 | 3.99
CCOC(=O)Cc1csc(NC(=O)NC2(C(F)(F)F)Oc3cc(Cl)c(Cl)cc3O2)n1 | 4.13
COC12C(COC(N)=O)C3=C(C(=O)C(C)=C(N)C3=O)N1CC1C2N1C (configuration not stated) | 4.11
CN1CCN(C(c2ccc(Br)cc2)c2cc(Cl)c3cccnc3c2O)CC1 (configuration not stated) | 4.70
CN(C)C1C(=O)C(C(N)=O)=C(O)C2(O)C(=O)C3=C(O)c4c(O)cccc4C(C)(O)C3C(O)C12 (configuration not stated) | 6.24

Structure (SMILES) | pIC50
O=C1c2ccccc2NC(c2ccc(-c3cccc(Cl)c3)o2)N1O (configuration not stated) | 4.28
NC(N)=N/N=C/c1ccc(OCc2ccc(Cl)cc2)cc1 | 4.45
Cc1ccc(-c2csc(N=C(N)N)n2)c(C)c1 | 4.24
Oc1cccc(/C=N/NC(=S)Nc2cccnc2)c1O | 4.54
CC(=O)Oc1ccc(C(=O)[C@H]2[C@H]3C(=O)N(c4ccc5ccccc5c4)C(=O)[C@H]3[C@@H]3C=CC=NN32)cc1 | 3.89
COc1ccc(C(=O)Cn2nc(CNc3ccc(Br)cc3)[n+]3c2CCCCC3)cc1 | 4.09
CC[n+]1c(/C=C/c2ccc(N(C)C)cc2)ccc2ccccc21 | 4.43
CN(O)/C=c1/ccc2c(n1)C(=O)C=CC=2 | 4.46
COc1ccc(Nc2cc(C)nc(NCc3ccccc3)n2)cc1 | 3.96
O=C(c1cccs1)c1no[n+]([O-])c1C(=O)c1cccs1 | 4.41
CC(C(=O)NC1CCS(=O)(=O)C1)N1C(=O)/C(=C/c2ccc(Cl)cc2)SC1=S (configuration not stated) | 4.94
Oc1ccc(CN2CCN(Cc3ccccc3)CC2)c2cccnc12 | 4.46
N=c1n(Cc2ccccc2)c2ccccc2n1CC(O)COc1ccc(Cl)cc1Cl (configuration not stated) | 4.59
CCCCCCCCCCCCCCCCn1cc[n+](C)c1 | 4.79
Cc1nc2c(=O)n(C)c(=O)n(C)c2nc1Cl | 3.97
COc1c(F)c(F)cc2c(=O)c(C(=O)O)cn(C3CC3)c12 | 4.07
Nc1nc2ccccc2n1Cc1ccc(Cl)c(Cl)c1 | 4.12
CCCCCCCCCCOC(=O)Cn1c(COc2ccc(C)cc2)[n+](C)c2ccccc21 | 4.70
Oc1c(C(Nc2ccccn2)c2ccccn2)ccc2cccnc12 (configuration not stated) | 4.40
NC(N)=NN=C1CCCCCCCCCCC1 | 4.11
CCCCCCCCCn1c2c(c(=N)c3c1CCC3)CCC2 | 4.43
Oc1c(CN2CCCCC2)cc(COCc2ccccc2)c2cccnc12 | 4.09

Structure (SMILES) | pIC50
O=C(O)Cc1sc(Nc2ccc(Cl)cc2)nc1-c1cccs1 | 3.83
Nc1[nH]c(=O)ncc1F | 4.03
c1ccc(-c2cccc(-c3ccccn3)n2)nc1 | 4.67
NCCc1c(-c2ccccc2)n(-c2ccccc2)c2ccccc12 | 4.36
CCn1cc(C(=O)O)c(=O)c2cc(F)c(N3CCN(C(=S)NC(=O)c4ccccc4)CC3)cc21 | 4.53
CCN1CCN(C(c2cccnc2)c2cc(Cl)c3cccnc3c2O)CC1 (configuration not stated) | 4.44
CCCCCCCCn1c2c(c(=N)c3ccccc31)CCC2 | 4.41
Cc1nc(N)nc(N)c1/C=C/C(C)(C)c1ccc(Cl)cc1 | 5.09
O=C(CSc1nc2ccccc2s1)N/N=C/c1cc([N+](=O)[O-])ccc1O | 4.05
C#CCOCCOCCOCCNc1nc(N2CCN(C(=O)CCCCCCCCCCNC(=O)[C@H]([C@@H](C)CC)n3cc(CCCCN=C(N)N)nn3)CC2)nc(N2CCN(C(=O)CCCCCCCCCCNC(=O)[C@H](CCCN=C(N)N)n3cc(C[C@@H](C)CC)nn3)CC2)n1 | 4.34
O=C(NC(CO)Cc1ccc([N+](=O)[O-])cc1)C(Cl)Cl (configuration not stated) | 4.90
CCCCN(CCCC)C(=O)c1cn(CC)c2cc(N3CCN(C)CC3)c(F)cc2c1=O | 4.66
CCC(C)N1CCC2(CC1)N=c1c(c3c4c5c(C)c(O)c3c(O)c1=NC(=O)C(C)=CC=C[C@H](C)[C@H](O)[C@@H](C)[C@@H](O)[C@@H](C)[C@H](OC(C)=O)[C@H](C)[C@@H](OC)C=CO[C@@](C)(O5)C4=O)N2 (some centres not stated) | 5.64
O=C(Nc1nc(-c2ccccn2)cs1)c1ccc(Cl)s1 | 4.54
CCCCCCCCCCCCCCCC[n+]1ccc(/C=N/O)cc1 | 4.54
COc1ccc(C(=O)N/N=C/c2sc3ccccc3c2O)cc1 | 4.38
CC[C@@H](C)[C@H](CNC)NC[C@@H](Cc1cccc2ccccc12)NCCc1cccc(C(F)(F)F)c1 | 4.49
CC[C@H]1OC(=O)[C@H](C)[C@@H](O[C@H]2C[C@@](C)(OC)[C@@H](O)[C@H](C)O2)[C@H](C)[C@@H](O[C@@H]2O[C@H](C)C[C@H](N(C)C)[C@H]2O)[C@](C)(O)C[C@@H](C)CN(C)[C@H](C)[C@@H](O)[C@]1(C)O | 5.63
CCCOc1ccc(Br)cc1CSC(=N)N | 3.87
O=C(N/N=C/c1c[nH]c2ccccc12)c1cc(-c2cccc3ccccc23)n[nH]1 | 4.07
Oc1cccc(C=NCc2ccccc2)c1O | 3.84
CCCC(=O)NC(c1cccs1)c1cc([N+](=O)[O-])c2cccnc2c1O (configuration not stated) | 4.59

Structure (SMILES) | pIC50
COc1ccccc1CNCCc1ccc(F)cc1 | 4.46
COc1cccc(Nc2nc(NCC3CCCO3)c3ccccc3n2)c1 (configuration not stated) | 4.06
O=C(NC(CO)C(O)c1ccc([N+](=O)[O-])cc1)C(Cl)Cl (configuration not stated) | 4.99
O=C(N/N=C\C=C\c1ccc([N+](=O)[O-])o1)c1cccs1 | 4.68
C/C(CC(=O)Nc1ccc(Cl)c(C(F)(F)F)c1)=N\NC(=O)c1cc2ccccc2cc1O | 4.09
COc1cccc(C2Nc3ccccc3C(=O)N2O)c1O (configuration not stated) | 3.86
CCOc1ccc(Nc2nc(N)c3ccccc3n2)cc1 | 4.06
CO/N=C(/C(=O)N[C@@H]1C(=O)N2C(C(=O)O)=CCS[C@H]12)c1cnc(N)s1 | 4.73
C[C@H]1c2cccc(O)c2C(O)=C2C(=O)[C@]3(O)C(O)=C(C(N)=O)C(=O)[C@@H](N(C)C)[C@@H]3[C@@H](O)[C@@H]21 | 5.54
C[C@H]1O[C@@H](n2cc(F)c(=O)[nH]c2=O)[C@H](O)[C@@H]1O | 4.41
Cc1nc2c(=O)n(C)c(=O)nc-2n(C)n1 | 5.96
Nc1nc2ccccc2n1CCOc1ccccc1Cl | 4.14
CCCCCCCCCCOC(=O)Cn1c(COc2cccc(C)c2)[n+](C)c2ccccc21 | 4.71
Cc1cc(C(=O)N/N=C/c2ccc([N+](=O)[O-])s2)n[nH]1 | 4.46
Nc1ccc2c(c1)C(=O)C(=O)c1ccccc1-2 | 4.96
CCCOc1ccc(C(=O)NC(=S)N2CCN(c3cc4c(cc3F)c(=O)c(C(=O)O)cn4CC)CC2)cc1 | 4.25
O=C(N/N=C/c1cc(O)ccc1Br)c1cccnc1 | 4.60
CCCCCc1ccc(OCCC[n+]2ccccc2)c(CCCCC)c1 | 4.15
CC(=O)N1CCN(c2cc3c(cc2F)c(=O)c(C(=O)O)cn3C2CC2)CC1 | 4.44
